The test deals with Androgen receptor (Mus musculus) (UniProt P19091). As to the kind of experiment: Antagonist activity at androgen receptor in mouse SC-3 cells assessed as inhibition of DHT-induced cell growth at 1 uM co-treated with DHT measured after 3 days by CCK8 assay. Background: Tetrazolium assays rely on reduction of a dye to a coloured formazan, in cell work by metabolically active cells.

The structures appear in SMILES notation.

Inhibition data for one molecule are collected here from ChEMBL document CHEMBL3865849, “Development of N-(4-Phenoxyphenyl)benzenesulfonamide Derivatives as Novel Nonsteroidal Progesterone Receptor Antagonists” (ACS Med Chem Lett, 2016).

Androgen receptor (Mus musculus), sequence (P19091 whole entry, looked up): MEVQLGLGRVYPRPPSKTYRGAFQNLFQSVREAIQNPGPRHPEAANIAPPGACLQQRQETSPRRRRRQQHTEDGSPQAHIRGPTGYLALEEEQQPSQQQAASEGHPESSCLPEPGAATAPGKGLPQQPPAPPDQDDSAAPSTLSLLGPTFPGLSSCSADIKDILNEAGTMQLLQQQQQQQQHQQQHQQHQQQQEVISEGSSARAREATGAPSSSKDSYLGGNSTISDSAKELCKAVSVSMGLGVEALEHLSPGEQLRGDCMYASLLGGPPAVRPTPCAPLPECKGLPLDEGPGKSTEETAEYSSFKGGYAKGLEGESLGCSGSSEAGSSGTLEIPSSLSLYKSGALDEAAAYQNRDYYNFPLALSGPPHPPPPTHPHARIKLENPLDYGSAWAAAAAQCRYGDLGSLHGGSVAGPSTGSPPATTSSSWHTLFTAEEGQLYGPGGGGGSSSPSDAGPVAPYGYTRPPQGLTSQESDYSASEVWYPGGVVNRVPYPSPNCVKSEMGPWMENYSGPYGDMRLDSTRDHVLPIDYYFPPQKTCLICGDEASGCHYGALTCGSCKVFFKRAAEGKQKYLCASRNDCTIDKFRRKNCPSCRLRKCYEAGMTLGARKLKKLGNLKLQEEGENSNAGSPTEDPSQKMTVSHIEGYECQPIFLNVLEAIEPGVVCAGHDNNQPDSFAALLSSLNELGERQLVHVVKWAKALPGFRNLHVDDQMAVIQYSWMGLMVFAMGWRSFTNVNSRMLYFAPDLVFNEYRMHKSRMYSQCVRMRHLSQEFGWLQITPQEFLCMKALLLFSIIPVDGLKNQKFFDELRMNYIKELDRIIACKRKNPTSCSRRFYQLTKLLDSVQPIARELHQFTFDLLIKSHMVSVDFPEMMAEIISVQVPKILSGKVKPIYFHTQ

The inhibition is the share of the control response that was lost under treatment. Take `O=S(=O)(Nc1ccc(Oc2ccccc2)cc1)c1cccc(Cl)c1`: the inhibition turned out to be 8.4%.
